For the assay, the target named is human full-length BTK Kinase (Homo sapiens (Human), UniProt Q06187). Kind of assay: Human BTK LanthaScreen Assay (TR-FRET). The assay is classed as biochemical. The settings on record: 50 μM ATP, FAM-Srctide peptide substrate, read-out: BTK Inhibition IC50. The text has this:
Human BTK LanthaScreen Assay
Sequence of human full-length BTK Kinase (Q06187 whole entry): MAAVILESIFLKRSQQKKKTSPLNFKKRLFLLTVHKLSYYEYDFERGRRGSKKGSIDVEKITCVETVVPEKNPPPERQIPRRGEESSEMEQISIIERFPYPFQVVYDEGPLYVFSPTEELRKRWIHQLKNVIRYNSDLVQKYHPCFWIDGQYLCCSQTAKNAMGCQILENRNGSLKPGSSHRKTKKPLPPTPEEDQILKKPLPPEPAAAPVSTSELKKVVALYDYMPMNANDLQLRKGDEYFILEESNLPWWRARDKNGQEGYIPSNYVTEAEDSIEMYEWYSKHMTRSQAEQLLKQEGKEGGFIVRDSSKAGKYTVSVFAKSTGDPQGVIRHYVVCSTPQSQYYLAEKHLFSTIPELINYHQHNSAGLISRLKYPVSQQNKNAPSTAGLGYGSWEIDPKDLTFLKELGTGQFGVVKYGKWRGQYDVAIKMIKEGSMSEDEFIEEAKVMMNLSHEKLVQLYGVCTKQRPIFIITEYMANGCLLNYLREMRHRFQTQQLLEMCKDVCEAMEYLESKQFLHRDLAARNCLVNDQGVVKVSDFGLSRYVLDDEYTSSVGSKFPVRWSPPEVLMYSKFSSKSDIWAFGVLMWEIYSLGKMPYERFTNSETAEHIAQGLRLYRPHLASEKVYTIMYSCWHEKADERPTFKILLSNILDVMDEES
`N#CN1CCCC(n2nc(-c3cccc(Oc4ccc(F)c(F)c4)c3)c(C(N)=O)c2N)C1` (centres unmarked) [Example 105, 5-amino-1-(1-cyanopiperidin-3-yl)-3-[3-(3,4-difluorophenoxy)phenyl]-1H-pyrazole-4-carboxamide]: the IC50 (as a rule, the concentration at which inhibition is half-maximal) is 55.5 nM.
Turning to `N#CN1CCCC(n2nc(-c3cccc(Oc4ccc(OC(F)(F)F)c(F)c4)c3)c(C(N)=O)c2N)C1` (centres unmarked) [Example 106, 5-amino-1-(1-cyanopiperidin-3-yl)-3-{3-[3-fluoro-4-(trifluoromethoxy)phenoxy]phenyl}-1H-pyrazole-4-carboxamide], the IC50 was determined as 58 nM.
The figure for `N#CN1CCCC(n2nc(-c3ccc(Oc4ccccc4)nc3)c(C(N)=O)c2N)C1` (centres unmarked) [Example 107, 5-amino-1-(1-cyanopiperidin-3-yl)-3-(6-phenoxypyridin-3-yl)-1H-pyrazole-4-carboxamide] is 171 nM; for `N#CN1CCCC(n2nc(-c3ccc(Oc4ccc(Cl)cn4)cc3)c(C(N)=O)c2N)C1` (centres unmarked) [Example 108, 5-amino-3-(4-((5-chloropyridin-2-yl)oxy)phenyl)-1-(1-cyanopiperidin-3-yl)-1H-pyrazole-4-carboxamide] it is 7.8 nM.
Next, `N#CN1CCCC(n2nc(-c3ccc(Oc4ccc(F)cn4)cc3)c(C(N)=O)c2N)C1` (centres unmarked) [Example 111, 5-amino-1-(1-cyanopiperidin-3-yl)-3-{4-[(5-fluoropyridin-2-yl)oxy]phenyl}-1H-pyrazole-4-carboxamide]: 119 nM.
With `Cc1ccc(Oc2ccc(-c3nn(C4CCCN(C#N)C4)c(N)c3C(N)=O)cc2)nc1` (centres unmarked) [Example 112, 5-amino-1-(1-cyanopiperidin-3-yl)-3-(4-((5-methylpyridin-2-yl)oxy)phenyl)-1H-pyrazole-4-carboxamide], the IC50 was 16.5 nM.
Next, `N#CN1CCCC(n2nc(-c3ccc(Oc4ncc(F)cc4F)cc3)c(C(N)=O)c2N)C1` (centres unmarked) [Example 115, 5-amino-1-(1-cyanopiperidin-3-yl)-3-{4-[(3,5-difluoropyridin-2-yl)oxy]phenyl}-1H-pyrazole-4-carboxamide]: 3.7 nM; `N#CN1CCC[C@H](n2nc(-c3ccc(Oc4cccc(C(F)(F)F)n4)cc3)c(C(N)=O)c2N)C1` [Example 117]: 18.9 nM; `N#CN1CCC[C@H](n2nc(-c3ccc(Oc4ncc(Cl)cc4F)cc3)c(C(N)=O)c2N)C1` [Example 119, (S)-5-amino-3-(4-((5-chloro-3-fluoropyridin-2-yl)oxy)phenyl)-1-(1-cyanopiperidin-3-yl)-1H-pyrazole-4-carboxamide]: 60.5 nM.
Next, `N#CN1CCCC(n2nc(-c3ccc(Oc4ccc(F)cc4)cc3Cl)c(C(N)=O)c2N)C1` (centres unmarked) [Example 120, 5-amino-3-[2-chloro-4-(4-fluorophenoxy)phenyl]-1-(1-cyanopiperidin-3-yl)-1H-pyrazole-4-carboxamide]: 141 nM; `C[C@H]1CC[C@@H](n2nc(-c3ccc(Oc4ccc(F)cc4F)cc3)c(C(N)=O)c2N)CN1C#N` [Example 122, 5-amino-1-[(3R,6S)-1-cyano-6-methylpiperidin-3-yl]-3-[4-(2,4-difluorophenoxy)phenyl]-1H-pyrazole-4-carboxamide]: 0.46 nM.
Next, `C[C@@H]1CC[C@H](n2nc(-c3ccc(Oc4ccc(F)cc4F)cc3)c(C(N)=O)c2N)CN1C#N` [Example 123, 5-amino-1-[(3S,6R)-1-cyano-6-methylpiperidin-3-yl]-3-[4-(2,4-difluorophenoxy)phenyl]-1H-pyrazole-4-carboxamide]: 396 nM; `N#CN1CCCC(n2nc(-c3ccc(Sc4ccc(Cl)cc4)cc3)c(C(N)=O)c2N)C1` (centres unmarked) [Example 124, 5-amino-3-{4-[(4-chlorophenyl)thio]phenyl}-1-(1-cyanopiperidin-3-yl)-1H-pyrazole-4-carboxamide]: 0.74 nM.
On to `N#CN1CCCC(n2nc(-c3ccc(Sc4ccccc4)cc3)c(C(N)=O)c2N)C1` (centres unmarked) [Example 125, 5-amino-1-(1-cyanopiperidin-3-yl)-3-[4-(phenylthio)phenyl]-1H-pyrazole-4-carboxamide], for which the IC50 stood at 0.4 nM.
Turning to `C/C=C/C(=O)N1CCCC(n2nc(-c3ccc(Oc4ccccc4)cc3)c(C(N)=O)c2N)C1` (centres unmarked) [Example 128, 5-amino-1-{1-[(2E)-but-2-enoyl]piperidin-3-yl}-3-(4-phenoxyphenyl)-1H-pyrazole-4-carboxamide], the concentration for half-maximal inhibition (IC50) is 4.5 nM.
The figure for `NC(=O)c1c(-c2ccc(Oc3ccccc3)cc2)nn([C@@H]2CCCN(C(=O)/C=C/CO)C2)c1N` [Example 129, 5-amino-1-{(3R)-1-[(2E)-4-hydroxybut-2-enoyl]piperidin-3-yl}-3-(4-phenoxyphenyl)-1H-pyrazole-4-carboxamide] is 1 nM.
The figure for `NC(=O)c1c(-c2ccc(Oc3ccc(Cl)cc3)cc2)nn([C@@H]2CCCN(C(=O)/C=C/CF)C2)c1N` [Example 132, 5-amino-3-[4-(4-chlorophenoxy)phenyl]-1-{(3R)-1-[(2E)-4-fluorobut-2-enoyl]piperidin-3-yl}-1H-pyrazole-4-carboxamide] is 1.1 nM; for `NC(=O)c1c(-c2ccc(Oc3ccc(Cl)cc3)cc2)nn([C@@H]2CCCN(C(=O)/C=C/C(F)F)C2)c1N` [Example 133, 5-amino-3-[4-(4-chlorophenoxy)phenyl]-1-{(3R)-1-[(2E)-4,4-difluorobut-2-enoyl]piperidin-3-yl}-1H-pyrazole-4-carboxamide] it is 0.38 nM; for `C=C(F)C(=O)N1CCC[C@@H](n2nc(-c3ccc(Oc4ccc(Cl)cc4)cc3)c(C(N)=O)c2N)C1` [Example 134, 5-amino-3-[4-(4-chlorophenoxy)phenyl]-1-[(3R)-1-(2-fluoroacryloyl)piperidin-3-yl]-1H-pyrazole-4-carboxamide] it is 5 nM.
Next, `N#C/C=C/C(=O)N1CCC[C@@H](n2nc(-c3ccc(Oc4ccc(Cl)cc4)cc3)c(C(N)=O)c2N)C1` [Example 135, 5-amino-3-[4-(4-chlorophenoxy)phenyl]-1-{(3R)-1-[(2E)-3-cyanoprop-2-enoyl]piperidin-3-yl}-1H-pyrazole-4-carboxamide]: 1.2 nM; `COC/C=C/C(=O)N1CCC[C@@H](n2nc(-c3ccc(Oc4ccc(F)cc4F)cc3)c(C(N)=O)c2N)C1` [Example 138, 5-amino-3-[4-(2,4-difluorophenoxy)phenyl]-1-{(3R)-1-[(2E)-4-methoxybut-2-enoyl]piperidin-3-yl}-1H-pyrazole-4-carboxamide]: 21.8 nM; `C=C(C)C(=O)N1CCC[C@@H](n2nc(-c3ccc(Oc4ccc(F)cc4F)cc3)c(C(N)=O)c2N)C1` [Example 139, 5-amino-3-[4-(2,4-difluorophenoxy)phenyl]-1-[(3R)-1-(2-methylacryloyl)piperidin-3-yl]-1H-pyrazole-4-carboxamide]: 247 nM.
`NC(=O)c1c(-c2ccc(Oc3ccc(F)cc3F)cc2)nn([C@@H]2CCCN(C(=O)/C=C/CCO)C2)c1N` [Example 141, 5-amino-3-[4-(2,4-difluorophenoxy)phenyl]-1-{(3R)-1-[(2E)-5-hydroxypent-2-enoyl]piperidin-3-yl}-1H-pyrazole-4-carboxamide]: the IC50 is 58 nM.
Next, `C/C=C/C(=O)N1CCC[C@@H](n2nc(-c3ccc(Oc4ccc(F)cc4F)cc3)c(C(N)=O)c2N)C1` [Example 142, 5-amino-1-{(3R)-1-[(2E)-but-2-enoyl]piperidin-3-yl}-3-[4-(2,4-difluorophenoxy)phenyl]-1H-pyrazole-4-carboxamide]: 61 nM.
The figure for `CC/C=C/C(=O)N1CCC[C@@H](n2nc(-c3ccc(Oc4ccc(F)cc4F)cc3)c(C(N)=O)c2N)C1` [Example 143, 5-amino-3-[4-(2,4-difluorophenoxy)phenyl]-1-{(3R)-1-[(2E)-pent-2-enoyl]piperidin-3-yl}-1H-pyrazole-4-carboxamide] is 125 nM; for `NC(=O)c1c(-c2ccc(Oc3ccc(F)cc3F)cc2)nn([C@@H]2CCCN(C(=O)/C(F)=C/CO)C2)c1N` [Example 146, 5-amino-3-[4-(2,4-difluorophenoxy)phenyl]-1-{(3R)-1-[(2Z)-2-fluoro-4-hydroxybut-2-enoyl]piperidin-3-yl}-1H-pyrazole-4-carboxamide] it is 48 nM; for `CC(C)(O)/C=C/C(=O)N1CCC[C@@H](n2nc(-c3ccc(Oc4ccc(F)cc4F)cc3)c(C(N)=O)c2N)C1` [Example 147, 5-amino-3-[4-(2,4-difluorophenoxy)phenyl]-1-{(3R)-1-[(2E)-4-hydroxy-4-methylpent-2-enoyl]piperidin-3-yl}-1H-pyrazole-4-carboxamide] it is 241 nM.
Next, `C[C@H](O)/C=C/C(=O)N1CCC[C@@H](n2nc(-c3ccc(Oc4ccc(F)cc4F)cc3)c(C(N)=O)c2N)C1` [Example 148, 5-amino-3-[4-(2,4-difluorophenoxy)phenyl]-1-{(3R)-1-[(2E,4S)-4-hydroxypent-2-enoyl]piperidin-3-yl}-1H-pyrazole-4-carboxamide]: 39 nM; `C[C@@H](O)/C=C/C(=O)N1CCC[C@@H](n2nc(-c3ccc(Oc4ccc(F)cc4F)cc3)c(C(N)=O)c2N)C1` [Example 149, 5-amino-3-(4-(2,4-difluorophenoxy)phenyl)-1-((R)-1-((R,E)-4-hydroxypent-2-enoyl)piperidin-3-yl)-1H-pyrazole-4-carboxamide]: 52 nM; `C=C(F)C(=O)N1CCC[C@@H](n2nc(-c3ccc(Oc4ccc(F)cc4F)cc3)c(C(N)=O)c2N)C1` [Example 150, 5-amino-3-[4-(2,4-difluorophenoxy)phenyl]-1-[(3R)-1-(2-fluoroacryloyl)piperidin-3-yl]-1H-pyrazole-4-carboxamide]: 5.3 nM.
Consider `N#C/C=C/C(=O)N1CCC[C@@H](n2nc(-c3ccc(Oc4ccc(F)cc4F)cc3)c(C(N)=O)c2N)C1` [Example 152, 5-amino-1-{(3R)-1-[(2E)-3-cyanoprop-2-enoyl]piperidin-3-yl}-3-[4-(2,4-difluorophenoxy)phenyl]-1H-pyrazole-4-carboxamide], for which the 50% inhibitory concentration (IC50) amounted to 1.5 nM.
Next, `NC(=O)c1c(-c2ccc(Oc3ncc(Cl)cc3F)cc2)nn([C@@H]2CCCN(C(=O)/C=C/CO)C2)c1N` [Example 154, 5-amino-3-{4-[(5-chloro-3-fluoropyridin-2-yl)oxy]phenyl}-1-{(3R)-1-[(2E)-4-hydroxybut-2-enoyl]piperidin-3-yl}-1H-pyrazole-4-carboxamide]: 49 nM.

These data come from patent US10266513B2 (Pfizer Inc., priority 2012, dated 2019).
